Data reported in publication PMC10381309 (Journal of Fungi, 2023).
Values after ≈ are worked out from the molar mass of the structure shown.

Tests used:
[1] = system: Phialophora verrucosa (CFP 00937); assay: Minimum fungicidal concentration determination; type: cell-based
Description: (§1) Minimum fungicidal concentration (MFC) was determined in triplicate by transferring a 5 μL aliquot from each well without fungal growth of the microdilution plates used for MIC determination, as described above, onto 2% glucose Sabouraud agar (Sigma Chemical Corporation). The MFC was determined as the lowest drug concentration without fungal growth on Sabouraud agar after five days of incubation at 35 °C. When the MFC/MIC ratio of a hit drug was 1 or 2, the substance was considered fungicidal against the pathogen. If this ratio was greater than 2, the hit drug was considered to be fungistatic.

[2] = system: Rhinocladiela similis (CFP 00790); assay: Minimum fungicidal concentration determination; type: cell-based
Description: as §1

[3] = system: Fonsecaea monophora (CFP 00911); assay: Minimum fungicidal concentration determination; type: cell-based
Description: as §1

[4] = system: Fonsecaea nubica (CFP 00912); assay: Minimum fungicidal concentration determination; type: cell-based
Description: as §1

[5] = system: Exophiala dermatitidis (ATCC 28869); assay: Minimum fungicidal concentration determination; type: cell-based
Description: as §1

[6] = system: Exophiala heteromorpha (ATCC 28180); assay: Minimum fungicidal concentration determination; type: cell-based
Description: as §1

[7] = system: Fonsecaea pedrosoi (CFP 00791); assay: Minimum fungicidal concentration determination; type: cell-based
Description: as §1

[8] = Effect of albendazole on cell viability, MTT assay; type: cell-based; conditions: after 96 h
Description: After this analysis, the effect on viability of albendazole on both HaCat (human skin keratinocyte) and Vero (monkey kidney epithelial cell) cells was evaluated by MTT assay. Firstly, the mammalian cells (5 × 10^4/well) were allowed to adhere in 96-well tissue culture plates for 4 h at 37 °C in a 5% CO2 atmosphere. Non-adherent cells were removed by washes with sterile DMEM and the wells refilled with DMEM medium supplemented with 10% FBS. The cells were then incubated with increasing concentrations of albendazole (15.62 to 750 µM) and incubated for additional 24 h and 96 h at 37 °C in a 5% CO2 atmosphere. Subsequently, the culture medium was discharged, and the formation of formazan was measured by adding MTT (5 mg/mL in PBS, 25 µg/well) and incubating the wells for 3 h in the dark at 37 °C. Wells with cells receiving only the culture medium with or without 1% DMSO were also included as positive cellular growth controls. The plates were subsequently centrifuged at 500× g for 8 min, the supernatant was removed, the pellet was dissolved in 200 µL of DMSO, and the absorbance measured in an ELISA reader at 570 nm (SpectraMax Gemini 190, Molecular Devices, CA, USA). The 50% cytotoxicity inhibitory concentration (CC50) was determined by non-linear regression analysis.

[9] = system: Phialophora verrucosa (CFP 00937); assay: Chequerboard synergism assay (FICI); type: cell-based; conditions: P. verrucosa
Description: (§2) To assess the type of interaction between the hit drugs and the antifungal drugs most used in the treatment of CBM (itraconazole and terbinafine), the fractional inhibitory concentration index (FICI) was determined, which defines the type of interaction between drugs in combination as follows: synergism if FICI ≤ 0.5; indifference if 0.5 < FICI ≤ 4; and antagonism if FICI > 4 [39]. The FICI was obtained by the sum of the fractional inhibitory concentrations (FIC) or by the formula: (A/MIC(a) = FIC_A) + (B/MIC(b) = FIC_B) = FICI, where: A = MIC of the drug (a) in combination; MIC (a) = MIC of drug (a) alone; B = MIC of drug (b) in combination; and MIC (b) = MIC of drug (b) alone. The test was carried out using the chequerboard method, in which the two drugs were applied in a single well of a 96-well plate, so that in each of the wells there were different concentrations of the combinations between the substance and the antifungal agent (Figure S1). Drug dilutions were prepared following the methodology proposed by EUCAST, starting from a stock solution of the hit drug or antifungal drug 100× concentrated, according to the methodology described to determine the MIC [36]. Hit drug A/antifungal drug B serial microdilution preparations were performed following the above mentioned protocol, observing the final concentration in the wells after the addition of drugs and inoculum. […] Column 12 was reserved for drug B (itraconazole or terbinafine) susceptibility testing. Row H was reserved for the selected NCC substance. The other combined drug and substance concentrations were distributed between columns 2 and 11 in rows A to G. Drug concentrations ranged from 0.062 μM to 4 µM for itraconazole and terbinafine, and from 0.125 μM to 64 µM for the hit drug on the combination boards.

[10] = system: Rhinocladiela similis (CFP 00790); assay: Chequerboard synergism assay (FICI); type: cell-based; conditions: R. similis
Description: as §2

[11] = system: Fonsecaea monophora (CFP 00911); assay: Chequerboard synergism assay (FICI); type: cell-based; conditions: F. monophora
Description: as §2

[12] = system: Fonsecaea nubica (CFP 00912); assay: Chequerboard synergism assay (FICI); type: cell-based; conditions: F. nubica
Description: as §2

[13] = system: Cladophialophora carrionii (CFP 00910); assay: Chequerboard synergism assay (FICI); type: cell-based; conditions: C. carrionii
Description: as §2

[14] = system: Exophiala dermatitidis (ATCC 28869); assay: Chequerboard synergism assay (FICI); type: cell-based; conditions: E. dermatitidis
Description: as §2

[15] = system: Exophiala heteromorpha (ATCC 28180); assay: Chequerboard synergism assay (FICI); type: cell-based; conditions: E. heteromorpha
Description: as §2

[16] = system: Fonsecaea pedrosoi (CFP 00791); assay: Chequerboard synergism assay (FICI); type: cell-based; conditions: F. pedrosoi
Description: as §2

[17] = system: Fonsecaea pedrosoi (CFP 00791); conditions: F. pedrosoi; PDA; 7 days, 37 °C; albendazole at ½ MIC
Description: At the end of the seven days of incubation at 37 °C, the plates were read visually. The aspect of the colonies supplemented with albendazole were compared to those of the positive melanin and inhibition melanin controls, to determine whether the color of the albendazole-supplemented cultures resembled the positive DHN-melanin or the melanin inhibition control. Pictures of the colonies were captured using a Canon EOS Rebel T7+ digital camera.

CBM agents = assay: Chequerboard synergism assay, stated over all tested isolates; type: cell-based
Description: To assess the type of interaction between the hit drugs and the antifungal drugs most used in the treatment of CBM (itraconazole and terbinafine), the fractional inhibitory concentration index (FICI) was determined, which defines the type of interaction between drugs in combination as follows: synergism if FICI ≤ 0.5; indifference if 0.5 < FICI ≤ 4; and antagonism if FICI > 4 [39]. The FICI was obtained by the sum of the fractional inhibitory concentrations (FIC) or by the formula: (A/MIC(a) = FIC_A) + (B/MIC(b) = FIC_B) = FICI, where: A = MIC of the drug (a) in combination; MIC (a) = MIC of drug (a) alone; B = MIC of drug (b) in combination; and MIC (b) = MIC of drug (b) alone. The test was carried out using the chequerboard method, in which the two drugs were applied in a single well of a 96-well plate, so that in each of the wells there were different concentrations of the combinations between the substance and the antifungal agent (Figure S1). Drug dilutions were prepared following the methodology proposed by EUCAST, starting from a stock solution of the hit drug or antifungal drug 100× concentrated, according to the methodology described to determine the MIC [36]. Hit drug A/antifungal drug B serial microdilution preparations were performed following the above mentioned protocol, observing the final concentration in the wells after the addition of drugs and inoculum. […]

With `CCCSc1ccc2nc(NC(=O)OC)[nH]c2c1` [Albendazole] the “MFC:MIC Ratio” value ([1]; P. verrucosa) was 64, the MFC ([1]; Phialophora verrucosa) was 40 µM (≈ 10.6 µg/mL) and the MFC [2] was over 80 µM. For the same molecule, the “MFC:MIC Ratio” value ([2]; R. similis) was over 64, the “MFC:MIC Ratio” value ([3]; F. monophora) was 1 and the “fungicidal or fungistatic (MFC/MIC ratio)” value ([3]; F. monophora) was “fungicidal (When the MFC/MIC ratio of a hit drug was 1 or 2, the substance was considered fungicidal)”. For the same molecule, the MFC ([3]; Fonsecaea monophora) was 0.625 µM (≈ 0.166 µg/mL), the “MFC:MIC Ratio” value ([4]; F. nubica) was 64 and the MFC ([4]; Fonsecaea nubica) was 40 µM (≈ 10.6 µg/mL). For the same molecule, the “MFC:MIC Ratio” value ([5]; E. dermatitidis) was over 32, the MFC ([5]; Exophiala dermatitidis, ATCC28869) was over 80 µM and the “MFC:MIC Ratio” value ([6]; E. heteromorpha) was 32. For the same molecule, the MFC ([6]; Exophiala heteromorpha, ATCC28180) was 80 µM (≈ 21.2 µg/mL), the “MFC:MIC Ratio” value ([7]; F. pedrosoi) was 1 and the “fungicidal or fungistatic (MFC/MIC ratio)” value ([7]; F. pedrosoi) was “fungicidal (When the MFC/MIC ratio of a hit drug was 1 or 2, the substance was considered fungicidal)”. The MFC ([7]; Fonsecaea pedrosoi) was 1.25 µM (≈ 0.332 µg/mL), the CC50 at 96 h ([8]; human, HaCat keratinocyte cells) was 85.1 µM and the CC50 at 96 h ([8]; monkey, Vero kidney epithelial cells) was 262 µM. The “FICI Albendazole + Itraconazole” value ([9]; combination with itraconazole) was 1.125, the “FICI Albendazole + Terbinafine” value ([9]; combination with terbinafine) was 2.12 and the “FICI Albendazole + Itraconazole” value ([10]; combination with itraconazole) was 0.62. The “FICI Albendazole + Terbinafine” value ([10]; combination with terbinafine) was 2, the “FICI Albendazole + Itraconazole” value ([11]; combination with itraconazole) was 1.50 and the “FICI Albendazole + Terbinafine” value ([11]; combination with terbinafine) was 1.12. For the same molecule, the “FICI Albendazole + Itraconazole” value ([12]; combination with itraconazole) was 1.25, the “FICI Albendazole + Terbinafine” value ([12]; combination with terbinafine) was 1.12 and the “FICI Albendazole + Itraconazole” value ([13]; combination with itraconazole) was 1.06. For the same molecule, the “FICI Albendazole + Terbinafine” value ([13]; combination with terbinafine) was 1.06, the “FICI Albendazole + Itraconazole” value ([14]; combination with itraconazole) was 1.06 and the “FICI Albendazole + Terbinafine” value ([14]; combination with terbinafine) was 1.06. The “FICI Albendazole + Itraconazole” value ([15]; combination with itraconazole) was 1.03, the “FICI Albendazole + Terbinafine” value ([15]; combination with terbinafine) was 1.06 and the “FICI Albendazole + Itraconazole” value ([16]; combination with itraconazole) was 1. The “FICI Albendazole + Terbinafine” value ([16]; combination with terbinafine) was 1.12, the melanin production [17] was “did not observe a decrease in melanin production” and the “type of interaction, albendazole with itraconazole” value (CBM agents) was “indifferent”. The “type of interaction, albendazole with terbinafine” value (CBM agents) was “indifferent”.
